Results from patent US20040162263A1, “Pharmaceutical formulations targeting specific regions of the gastrointesinal tract” (priority 2002, published 2004).

Test: Pharmacokinetics of 9-nitro-camptothecin (9NC) in IVAP beagle dog model
Assay type: in vivo, beagle dogs
Description: Blood samples were taken systemic and from the portal vein through a sampling/delivery vascular port previously implanted, then plasma was separated by centrifugation and kept frozen at −80° C. until analysis.
The samples were analyzed in a Perkin Elmer liquid chromatography-tandem mass spectrometer system with a PE LC-200 Micro pump, a PE200 Autosampler and a PE Sciex API 365 mass spectrometry unit.
Adult male beagle dogs (between the ages of 1 and 5 years and weighed between 9 and 16 kg) were obtained from Summit Ridge Farms, Susquehanna, Pa. The IVAP dogs were prepared by using a protocol similar to the one used for pentostatin experiments described above.
On the morning of the test, each animal is weighed and placed in the sling. An IV catheter is installed in the brachial vein for systemic blood sampling with a multiuse vacutainer needle adapter. This is flushed with heparinized saline (50 units/ml) to maintain potency between sampling. When necessary, a 20 g or 22 g right-angled Huber infusion set would be placed in the PV port and attached to a three-way stopcock for PV blood sampling.
The preparation of the dose depends on the route of study. In case of IV and PV administration, the drug was dissolved in dimethylacetamide (DMA) at 5 mg/ml and 0.5 ml of the DMA concentrate filtered through a […] filter into 4.5 ml of diluent (51% PEG-400 49% 0.001 M H3PO4) prior to administration to the brachial or portal vein. In the case of all other infusions, as well as oral administration, the drug was dissolved in vegetable oil to a concentration of 1 mg/ml and drawn up into dosing syringes. Animals were dosed IV at 0.1 and 0.2 mg/kg and 0.2 mg/kg for all the other routes of administration tested.
In intravascular studies, the dose is administered via a second catheter and the entire volume is delivered within 45 seconds.
In portal vein studies, the dose is also administered via an additional catheter over a 30 min time period.
In the case of oral dosages, the dose is delivered to the back of the mouth with an appropriate size syringe and is followed with 5 ml of tap water to assist swallowing and clearance of the dose from the mouth. Capsules were administered similarly by placing them at the back of the mouth and giving around 5 ml of water to facilitate swallowing.
For all other tests, the dosage is infused into the appropriate intestinal port and flushed with 2-3 ml of sterile saline. The dead space volume of the ports and tubing vary slightly between individuals, but are generally less than 0.5 ml total. […]
Systemic blood samples allow the calculation of AUC0-inf after oral capsule administration only and portal vein AUC for all the routes of administration.

[1] = portal vein samples, 9-NC via COLON port
[2] = portal vein samples, 9-NC via ILEUM port
[3] = portal vein samples, 9-NC via JEJUNUM port
[4] = systemic samples, 9-NC via COLON port
[5] = systemic samples, 9-NC via ILEUM port
[6] = systemic samples, 9-NC via JEJUNUM port

Q: Which “Mean plasma concentration, Portal Vein” value (ileum port, 6 hr) does the source give for `CC[C@@]1(O)C(=O)OCc2c1cc1n(c2=O)Cc2cc3c(N)cccc3nc2-1` [9-AC, 9-amino-20(S)-camptothecin] here?
A: The value was 4.09 ± 4.44 ng/mL.

Q: And the “Mean plasma concentration, Systemic” value (ileum port, 6 hr)?
A: Its value is 1.17 ± 0.75 ng/mL.

Q: And the “Mean plasma concentration, Systemic” value (ileum port, 8 hr)?
A: Its value is 2.04 ± 0.20 ng/mL.

Q: And the “Mean plasma concentration, Systemic” value (ileum port, 12 hr)?
A: Its value is 0.85 ± 0.95 ng/mL.

Q: And the “Mean plasma concentration, Systemic” value (ileum port, 24 hr)?
A: The value was 0.47 ng/mL.

Q: And the “Mean plasma concentration, Portal Vein” value (jejunal port, 0.5 hr)?
A: Its value is 0.12 ng/mL.

Q: And the “Mean plasma concentration, Systemic” value (jejunal port, 0.5 hr)?
A: Its value is “BQL”.

Q: What about the “Mean plasma concentration, Portal Vein” value (jejunal port, 1 hr) of the same compound?
A: The value was 0.16 ± 0.10 ng/mL.

Q: What about the “Mean plasma concentration, Systemic” value (jejunal port, 1 hr) of the same compound?
A: The value was 0.38 ng/mL.

Q: What about the “Mean plasma concentration, Portal Vein” value (jejunal port, 2 hr) of the same compound?
A: Its value is 0.39 ± 0.04 ng/mL.

Q: What about the “Mean plasma concentration, Systemic” value (jejunal port, 2 hr) of the same compound?
A: Its value is 0.32 ± 0.11 ng/mL.

Q: What about the “Mean plasma concentration, Portal Vein” value (jejunal port, 3 hr) of the same compound?
A: The value was 0.97 ± 0.76 ng/mL.

Q: What about the “Mean plasma concentration, Systemic” value (jejunal port, 3 hr) of the same compound?
A: Its value is 0.47 ± 0.38 ng/mL.

Q: What about the “Mean plasma concentration, Portal Vein” value (jejunal port, 4 hr) of the same compound?
A: Its value is 2.38 ± 2.20 ng/mL.

Q: And the “Mean plasma concentration, Systemic” value (jejunal port, 4 hr)?
A: Its value is 0.89 ± 0.67 ng/mL.

Q: What about the “Mean plasma concentration, Portal Vein” value (jejunal port, 6 hr) of the same compound?
A: Its value is 1.65 ± 1.13 ng/mL.

Q: And the “Mean plasma concentration, Systemic” value (jejunal port, 6 hr)?
A: The value was 1.59 ± 1.71 ng/mL.

Q: What about the “Mean plasma concentration, Portal Vein” value (jejunal port, 8 hr) of the same compound?
A: Its value is 2.70 ± 0.59 ng/mL.

Q: And the “Mean plasma concentration, Systemic” value (jejunal port, 8 hr)?
A: Its value is 1.71 ± 1.54 ng/mL.

Q: And the “Mean plasma concentration, Systemic” value (jejunal port, 10 hr)?
A: Its value is 1.81 ± 1.09 ng/mL.

Q: What about the “Mean plasma concentration, Portal Vein” value (jejunal port, 12 hr) of the same compound?
A: Its value is 2.62 ± 0.29 ng/mL.

Q: What about the “Mean plasma concentration, Systemic” value (jejunal port, 12 hr) of the same compound?
A: The value was 1.03 ± 0.05 ng/mL.

Q: What about the “Mean plasma concentration, Portal Vein” value (jejunal port, 24 hr) of the same compound?
A: Its value is 0.66 ng/mL.

Q: And the “Mean plasma concentration, Systemic” value (jejunal port, 24 hr)?
A: Its value is 0.45 ± 0.29 ng/mL.

Q: And the AUC0-INF (portal vein samples, 0.2 mg/kg 9-NC via COLON port)?
A: Its AUC0-INF is 20.81 ± 9.57 ng·h/mL.

Q: What about the AUC0-INF (portal vein samples, 0.2 mg/kg 9-NC via JEJUNUM port) of the same compound?
A: The AUC0-INF was 50.26 ± 6.65 ng·h/mL.

Q: What about the AUCLast [1] of the same compound?
A: The AUCLast was 12.69 ± 5.10 ng·h/mL.

Q: And the CMAX [1]?
A: The CMAX was 2.28 ± 1.59 ng/mL.

Q: And the MRT [1]?
A: Its MRT is 7.54 ± 0.61 h.

Q: What about the T1/2 [1] of the same compound?
A: The T1/2 was 3.98 ± 0.25 h.

Q: And the TMAX [1]?
A: Its TMAX is 4.00 ± 2.00 h.

Q: What about the AUCLast [2] of the same compound?
A: Its AUCLast is 11.83 ± 12.85 ng·h/mL.

Q: And the CMAX [2]?
A: Its CMAX is 4.10 ± 2.28 ng/mL.

Q: And the TMAX [2]?
A: The TMAX was 6.00 ± 0.00 h.

Q: What about the AUCLast [3] of the same compound?
A: Its AUCLast is 28.70 ± 12.16 ng·h/mL.

Q: And the CMAX [3]?
A: The CMAX was 3.46 ± 1.22 ng/mL.

Q: What about the MRT [3] of the same compound?
A: Its MRT is 13.97 ± 2.62 h.

Q: What about the T1/2 [3] of the same compound?
A: The T1/2 was 6.54 ± 1.30 h.

Q: What about the TMAX [3] of the same compound?
A: The TMAX was 9.33 ± 4.62 h.

Q: And the AUC0-INF (systemic samples, 0.2 mg/kg 9-NC via COLON port)?
A: Its AUC0-INF is 36.91 ± 22.62 ng·h/mL.

Q: What about the AUC0-INF (systemic samples, 0.2 mg/kg 9-NC via ILEUM port) of the same compound?
A: Its AUC0-INF is 21.23 ± 14.94 ng·h/mL.

Q: And the AUC0-INF (systemic samples, 0.2 mg/kg 9-NC via JEJUNUM port)?
A: Its AUC0-INF is 24.41 ± 7.77 ng·h/mL.

Q: What about the AUCLast [4] of the same compound?
A: The AUCLast was 19.34 ± 11.92 ng·h/mL.

Q: What about the CMAX [4] of the same compound?
A: The CMAX was 1.29 ± 0.63 ng/mL.

Q: What about the MRT [4] of the same compound?
A: The MRT was 57.62 ± 42.79 h.

Q: And the T1/2 [4]?
A: The T1/2 was 15.16 ± 14.34 h.

Q: What about the TMAX [4] of the same compound?
A: The TMAX was 9.33 ± 2.31 h.

Q: What about the AUCLast [5] of the same compound?
A: The AUCLast was 18.69 ± 11.73 ng·h/mL.

Q: What about the CMAX [5] of the same compound?
A: The CMAX was 2.04 ± 0.20 ng/mL.

Q: And the MRT [5]?
A: Its MRT is 10.64 ± 5.14 h.

Q: What about the T1/2 [5] of the same compound?
A: The T1/2 was 4.09 ± 4.24 h.

Q: And the TMAX [5]?
A: Its TMAX is 8.00 ± 0.00 h.

Q: What about the AUCLast [6] of the same compound?
A: Its AUCLast is 18.86 ± 5.73 ng·h/mL.

Q: What about the CMAX [6] of the same compound?
A: The CMAX was 1.99 ± 1.39 ng/mL.

Q: What about the MRT [6] of the same compound?
A: The MRT was 15.64 ± 8.69 h.

Q: And the T1/2 [6]?
A: Its T1/2 is 7.20 ± 5.98 h.

Q: And the TMAX [6]?
A: Its TMAX is 8.67 ± 2.31 h.
